In patent US8557992B2, “Heterocyclic fused phenanthrolinone M1 receptor positive allosteric modulators” (Merck Sharp & Dohme Corp., priority 2010, dated 2013):
Like-named read-outs stand apart in the source and are kept apart here.

Molecular target: T1, acetylcholine muscarinic M1 receptor (hM1) (Homo sapiens, UniProt P11229)
T1 construct: expressed in transfected cells; host or cells: CHOnfat (CHO cells, Geneticin selection)
T1 sequence (P11229 1-460): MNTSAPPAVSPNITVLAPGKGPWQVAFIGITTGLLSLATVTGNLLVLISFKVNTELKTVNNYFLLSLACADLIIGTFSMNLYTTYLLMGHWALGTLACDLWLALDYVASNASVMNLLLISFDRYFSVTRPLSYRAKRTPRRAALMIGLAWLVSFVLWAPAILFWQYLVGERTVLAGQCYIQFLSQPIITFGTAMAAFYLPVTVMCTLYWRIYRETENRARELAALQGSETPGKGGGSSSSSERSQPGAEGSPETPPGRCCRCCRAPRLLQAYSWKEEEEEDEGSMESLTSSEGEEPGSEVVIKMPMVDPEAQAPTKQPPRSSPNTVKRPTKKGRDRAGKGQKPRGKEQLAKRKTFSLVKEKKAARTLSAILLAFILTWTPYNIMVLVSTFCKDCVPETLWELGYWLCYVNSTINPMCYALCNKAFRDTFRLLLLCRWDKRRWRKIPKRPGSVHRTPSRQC
Experiment: FLIPR intracellular calcium assay for M1 positive allosteric modulator activity in CHOnfat/hM1 cells
Assay type: cell-based
Description: The assay studies the effect of one or several concentrations of test compounds on basal or acetylcholine-stimulated Ca^2+ levels using FLIPR.
Compounds are prepared and subjected to a preincubation period of 4 min. Thereafter, a single EC20 concentration of acetylcholine is added to each well (3 nM final). The intracellular Ca^2+ level of each sample is measured and compared to an acetylcholine control to determine any modulatory activity.
Cells: CHOnfat/hM1, hM2, hM3 or hM4 cells are plated 24 hr before the assay at a density of 18,000 cells/well (100 μL) in a 384 well plate. CHOnfat/hM1 and CHOnfat/hM3 Growth Medium: 90% DMEM (Hi Glucose); 10% HI FBS; 2 mM L-glutamine; 0.1 mM NEAA; Pen-Strep; and 1 mg/ml Geneticin, are added. For M2Gqi5CHOnfat and M4Gqi5CHOnfat cells, an additional 600 ug/ml hygromycin is added.
Equipment: 384 well plate, 120 μL addition plate; 96-well Whatman 2 ml Uniplate Incubator, 37° C., 5% CO2; Skatron EMBLA-384 Plate Washer; Multimek Pipetting System; Genesis Freedom 200 System; Mosquito System; Temo Nanolitre Pipetting System; and FLIPR^384 Fluorometric Imaging Plate Reader System are used.
Buffers. Assay Buffer: […] Balanced Salt Solution, with 20 mM Hepes, 2.5 mM Probenecid (Sigma P-8761) first dissolved in 1 N NaOH, 1% Bovine Serum Albumin (Sigma A-9647). Dye Loading Buffer: Assay Buffer plus 1% Fetal Bovine Serum and Fluo-4AM/Pluronic Acid Mixture. 2 mM Fluo-4AM ester stock in DMSO (Molecular Probes F-14202) Concentration of 2 μM in buffer for a final concentration of 1 μM in Assay. 20% Pluronic Acid Solution stock, with concentration of 0.04% in Buffer, 0.02% in Assay.
65 μL of 2 mM Fluo-4AM are mixed with 130 μL of 20% Pluronic Acid. The resulting solution and 650 μL FBS is added to the assay buffer for a total volume of 65 mL. Positive Controls: 4-Br-A23187: 10 mM in DMSO; final concentration 10 μM. Acetylcholine: 10 mM in water, working stock at both 20 μM and 30 μM in assay buffer, final concentration of 10 μM. This is used to check the maximum stimulation of the CHOK1/hM1 cells. 20 μM (2×) acetylcholine is added in the preincubation part of the assay, and the 30 μM (3×) stock is added in the second part. (EC20) Acetylcholine: 10 mM in water, working stock of 9 nM (3×), and final concentration in assay is 3 nM. This is used after the preincubation with test compounds. Addition of the EC20 Acetylcholine to each well with a test compound will ascertain any modulator activity. 24 wells contain 3 nM Acetylcholine alone as a control.
Screening Plate Compounds are titrated in 96-well plates (columns 2-11), 100% DMSO, started at a concentration of 15 mM (150× stock concentration), and 3-fold serial dilutions using Genesis Freedom200 System. Four 96-well plates are combined into a 384-well plate using Mosquito Nanolitre Pipetting System by transferring 1 μl of serial diluted compounds to each well, and 1 mM acetylcholine (100× stock concentration) were added as a control. Using Temo, 49 μl assay buffer is added to each well of the 384-well plate right before assay.
In a 96-well Whatman 2 ml Uniplate, 9 nM Acetylcholine (3×) is pipetted into wells corresponding to the screening compounds, and into control wells. The 30 μM acetylcholine control (3×) is added into control wells, and the 3× agonist plate is transferred into a 384 well plate.
Cells are washed three times with 100 μL of buffer, leaving 30 μL of buffer in each well. Using Multimek, 30 μL of Dye Loading Buffer is added into each well and incubated at 37° C., 5% CO2 for up to one hr.
After 60 min, the cells are washed three times with 100 μL of buffer, leaving 30 μL of buffer in each well. The cell plate, screening plate, and agonist addition plates are placed on the platform in the FLIPR and the door closed. A signal test to check background fluorescence and basal fluorescence signal is performed. Laser intensity is adjusted if necessary. […]

[1] = 4 min preincubation, then acetylcholine EC20 (3 nM final), calculated from FLIPR values, read-out: IP Value (inflection point)
[2] = Table 1, unit inferred, potentiation of acetylcholine EC20 (3 nM final), read-out: H Pot.

EC50 [1] | EC50 [2] | Compound
23.5 nM | – | O=c1c2cc(Cc3ccc(Cl)nc3)c3cccnc3c2ccn1[C@H]1CCCC[C@@H]1O [Example 1, 5-[(6-Chloropyridin-3-yl)methyl]-8-[(1S,2S)-2-hydroxycyclohexyl]-1,8-phenanthrolin-7(8H)-one]
– | 24 nM | Cc1cc(Cc2cc3c(=O)n([C@H]4CCCC[C@@H]4O)ccc3c3ncccc23)ccn1 [Example 12]
15 nM | – | CSc1ccc(Cc2cc3c(=O)n([C@H]4CCCC[C@@H]4O)ccc3c3ncccc23)cn1 [Example 3]
72 nM | – | O=c1c2cc(Cc3ccnc(OC(F)F)c3)c3cccnc3c2ccn1[C@H]1CCCC[C@@H]1O [Example 4]
– | 16.8 nM | Cc1cc(Cc2cc3c(=O)n([C@H]4CCOC[C@@H]4O)ccc3c3ncccc23)ccn1 [Example 14]
20.6 nM | – | COc1ccc(Cc2cc3c(=O)n([C@H]4CCOC[C@@H]4O)ccc3c3ncccc23)cn1 [Example 2, 1,5-Anhydro-2,3-dideoxy-3-{5-[(6-methoxypyridin-3-yl)methyl]-7-oxo-1,8-phenanthrolin-8(7H)-yl}-L-threo-pentitol]
– | 55 nM | O=c1c2cc(Cc3ccc(OC(F)F)nc3)c3cccnc3c2ccn1[C@H]1CCCC[C@@H]1O [Example 13]
– | 20.5 nM | O=c1c2cc(Cc3ccnc(Cl)c3)c3cccnc3c2ccn1[C@H]1CCCC[C@@H]1O [Example 11]
– | 21.9 nM | COc1cc(Cc2cc3c(=O)n([C@H]4CCCC[C@@H]4O)ccc3c3ncccc23)ccn1 [Example 10]
– | 6.2 nM | COc1ccc(Cc2cc3c(=O)n([C@H]4CCOC[C@@H]4O)ccc3c3ncccc23)cc1 [Example 8]
1.7 nM | – | Cn1cc(-c2ccc(Cc3cc4c(=O)n([C@H]5CCCC[C@@H]5O)ccc4c4ncccc34)cn2)cn1 [Example 5]
28.6 nM | – | O=c1c2cc(Cc3cccnc3)c3cccnc3c2ccn1[C@H]1CCCC[C@@H]1O [Example 6, 8-[(1S,2S)-2-hydroxycyclohexyl]-5-(pyridin-3-ylmethyl)-1,8-phenanthrolin-7(8H)-one]
– | 21 nM | COc1ccc(Cc2cc3c(=O)n([C@H]4CCCC[C@@H]4O)ccc3c3ncccc23)cc1 [Example 7]
– | 22.5 nM | COc1ccc(Cc2cc3c(=O)n([C@H]4CCCC[C@@H]4O)ccc3c3ncccc23)cn1 [Example 9]
